“And” between values parts separate entries of the source, which are not always exact repeats. Identical values can stand only once.
What was measured:
[1] = target: α-glucosidase GAA (Myozyme) (Homo sapiens, UniProt P10253); assay: in vitro apparent IC50, GAA (Myozyme), 4-MU-α-D-glucopyranoside; assay type: biochemical; parameters: purchased Sanofi Genzyme; conditions: Myozyme 47 nM, pH 4.0, 30 min preincubation, mean ± SD
[2] = target: T1, β-glucosidase GBA1 (Cerezyme) (Homo sapiens, UniProt P04062, R534H); assay: in vitro apparent IC50, GBA1 (Cerezyme), 4-MU-β-D-glucopyranoside; assay type: biochemical; conditions: pH 5.2, mean ± SD, read-out: in vitro GBA IC50
T1 construct: purchased
T1 sequence (P04062 40-536 R534H): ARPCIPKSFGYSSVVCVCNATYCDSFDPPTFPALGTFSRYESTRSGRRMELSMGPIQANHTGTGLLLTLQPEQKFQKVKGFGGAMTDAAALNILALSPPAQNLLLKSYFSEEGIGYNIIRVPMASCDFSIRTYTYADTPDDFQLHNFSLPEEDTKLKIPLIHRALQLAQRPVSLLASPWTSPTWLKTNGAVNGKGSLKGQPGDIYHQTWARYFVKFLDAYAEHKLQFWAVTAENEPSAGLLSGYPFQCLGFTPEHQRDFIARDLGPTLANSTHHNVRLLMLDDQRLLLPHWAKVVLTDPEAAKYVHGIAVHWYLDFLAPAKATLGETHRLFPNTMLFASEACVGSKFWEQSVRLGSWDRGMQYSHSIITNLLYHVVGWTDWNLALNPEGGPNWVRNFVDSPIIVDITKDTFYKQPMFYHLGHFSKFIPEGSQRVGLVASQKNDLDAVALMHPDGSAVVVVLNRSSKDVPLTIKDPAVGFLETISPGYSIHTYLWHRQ

β-glucosidase GBA2 = target: T2, β-glucosidase GBA2 (Homo sapiens, UniProt Q9HCG7); assay: in vitro apparent IC50, GBA2-overexpressing HEK293T lysate; assay type: biochemical; conditions: for IC50: apparent IC50, pH 5.8, mean ± SD
T2 construct: expressed in transfected cells; host or cells: HEK293T
T2 sequence (Q9HCG7 1-927): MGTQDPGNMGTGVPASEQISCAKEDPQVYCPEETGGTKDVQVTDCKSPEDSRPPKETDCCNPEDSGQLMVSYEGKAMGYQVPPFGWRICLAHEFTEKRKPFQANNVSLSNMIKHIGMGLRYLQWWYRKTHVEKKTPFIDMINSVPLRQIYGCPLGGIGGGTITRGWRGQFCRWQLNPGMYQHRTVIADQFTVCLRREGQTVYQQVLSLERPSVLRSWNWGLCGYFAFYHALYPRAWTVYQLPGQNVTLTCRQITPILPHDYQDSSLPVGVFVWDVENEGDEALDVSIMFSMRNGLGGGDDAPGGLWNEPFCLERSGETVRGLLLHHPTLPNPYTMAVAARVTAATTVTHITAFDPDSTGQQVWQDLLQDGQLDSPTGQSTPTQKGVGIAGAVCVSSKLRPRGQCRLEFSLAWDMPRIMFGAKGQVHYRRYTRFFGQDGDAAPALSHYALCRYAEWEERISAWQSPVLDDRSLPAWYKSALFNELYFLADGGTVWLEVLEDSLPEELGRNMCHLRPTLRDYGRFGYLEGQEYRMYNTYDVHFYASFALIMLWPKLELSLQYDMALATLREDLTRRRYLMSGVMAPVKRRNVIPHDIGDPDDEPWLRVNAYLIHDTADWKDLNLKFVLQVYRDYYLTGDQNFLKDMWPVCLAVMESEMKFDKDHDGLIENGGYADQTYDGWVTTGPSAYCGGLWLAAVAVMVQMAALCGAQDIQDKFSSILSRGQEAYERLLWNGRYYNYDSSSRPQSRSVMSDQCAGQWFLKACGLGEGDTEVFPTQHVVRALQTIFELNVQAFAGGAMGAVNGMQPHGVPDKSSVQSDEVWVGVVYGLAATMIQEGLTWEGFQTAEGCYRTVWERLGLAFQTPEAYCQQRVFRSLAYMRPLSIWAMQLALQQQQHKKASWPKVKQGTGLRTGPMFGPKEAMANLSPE

[3] = target: T3, ER α-glucosidase II (GANAB) (Homo sapiens, UniProt Q14697); assay: in vitro apparent IC50, GANAB in fibroblast lysates, 4-MU-α-D-glucopyranoside; assay type: biochemical; conditions: for IC50: apparent IC50, Pompe disease fibroblast lysates, pH 7.0, mean ± SD
T3 construct: GANAB (from Pompe Disease Fibroblast Lysates); endogenous in cells; host or cells: human fibroblasts (lysate)
T3 sequence (Q14697 29-944): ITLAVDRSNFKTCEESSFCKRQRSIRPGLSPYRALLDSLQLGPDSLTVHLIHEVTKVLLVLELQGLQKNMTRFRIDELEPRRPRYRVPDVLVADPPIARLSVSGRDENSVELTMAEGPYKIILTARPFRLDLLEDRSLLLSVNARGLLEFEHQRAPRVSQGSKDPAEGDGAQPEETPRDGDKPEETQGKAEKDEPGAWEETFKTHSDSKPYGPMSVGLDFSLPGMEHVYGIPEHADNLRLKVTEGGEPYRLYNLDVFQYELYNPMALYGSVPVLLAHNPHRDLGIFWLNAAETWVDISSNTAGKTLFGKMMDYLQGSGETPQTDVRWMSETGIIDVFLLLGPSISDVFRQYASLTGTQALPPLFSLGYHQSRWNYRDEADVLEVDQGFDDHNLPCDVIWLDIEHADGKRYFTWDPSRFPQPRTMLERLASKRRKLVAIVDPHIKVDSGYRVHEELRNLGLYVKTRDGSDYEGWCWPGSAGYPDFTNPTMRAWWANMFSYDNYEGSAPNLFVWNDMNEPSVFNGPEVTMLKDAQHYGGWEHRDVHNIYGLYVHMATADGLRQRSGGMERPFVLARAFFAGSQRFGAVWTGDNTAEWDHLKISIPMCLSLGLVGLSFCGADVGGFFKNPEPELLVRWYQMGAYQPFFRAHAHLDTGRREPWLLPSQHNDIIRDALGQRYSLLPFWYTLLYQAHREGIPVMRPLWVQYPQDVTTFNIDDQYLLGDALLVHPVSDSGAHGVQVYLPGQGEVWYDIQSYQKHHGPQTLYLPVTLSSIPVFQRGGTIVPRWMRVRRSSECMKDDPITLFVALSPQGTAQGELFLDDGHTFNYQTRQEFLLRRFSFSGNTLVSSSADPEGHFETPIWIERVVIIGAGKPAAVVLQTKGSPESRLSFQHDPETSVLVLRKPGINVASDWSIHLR
T3 sequence (P14314 15-528 partner): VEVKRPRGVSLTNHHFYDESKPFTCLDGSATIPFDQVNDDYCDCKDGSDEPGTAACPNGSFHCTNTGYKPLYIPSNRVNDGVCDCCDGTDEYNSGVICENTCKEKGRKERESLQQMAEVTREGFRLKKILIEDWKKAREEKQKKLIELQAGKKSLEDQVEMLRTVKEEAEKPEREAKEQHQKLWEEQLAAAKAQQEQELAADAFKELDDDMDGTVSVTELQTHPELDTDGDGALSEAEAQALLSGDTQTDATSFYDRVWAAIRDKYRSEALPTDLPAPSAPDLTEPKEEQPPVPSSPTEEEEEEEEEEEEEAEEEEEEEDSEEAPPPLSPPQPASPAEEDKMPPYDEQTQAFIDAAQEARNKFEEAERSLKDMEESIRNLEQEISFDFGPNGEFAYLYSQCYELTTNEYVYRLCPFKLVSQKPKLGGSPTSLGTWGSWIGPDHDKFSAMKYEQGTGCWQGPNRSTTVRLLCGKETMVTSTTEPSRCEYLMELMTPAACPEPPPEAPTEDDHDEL

[4] = target: T4, glucosylceramide synthase (GCS) (Mus musculus, UniProt O88693); assay: in situ cell inhibition of GCS in RAW 264.7 cells, glucosylation of C6-NBD-ceramide; assay type: cell-based; conditions: mean ± SD
T4 construct: endogenous in cells; host or cells: RAW 264.7
T4 sequence (O88693 1-394): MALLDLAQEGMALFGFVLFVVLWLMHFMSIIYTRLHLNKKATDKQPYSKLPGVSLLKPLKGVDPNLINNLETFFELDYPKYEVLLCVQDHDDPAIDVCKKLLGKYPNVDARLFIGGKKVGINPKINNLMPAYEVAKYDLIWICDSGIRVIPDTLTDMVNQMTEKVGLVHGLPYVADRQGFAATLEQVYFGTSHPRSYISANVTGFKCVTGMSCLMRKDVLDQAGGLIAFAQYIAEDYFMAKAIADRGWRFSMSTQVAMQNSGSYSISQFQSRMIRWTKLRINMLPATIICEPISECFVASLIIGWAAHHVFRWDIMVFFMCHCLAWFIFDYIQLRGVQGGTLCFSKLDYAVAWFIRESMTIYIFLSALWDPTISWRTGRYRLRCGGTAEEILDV

| SMILES | IC50 [1] [µM] | IC50 [2] | inhibition at 500 µM (β-glucosidase GBA2; at 500 μM) [%] | IC50 [3] [µM] | IC50 (β-glucosidase GBA2) [µM] | activity toward GANAB, in words [3] | IC50 [4] [µM] |
| --- | --- | --- | --- | --- | --- | --- | --- |
| O=S1(=O)O[C@@H]2[C@H](O)[C@@H](O)[C@H](O)[C@@H](CO)[C@@H]2O1 [compound 3, 1,6-epi-cyclophellitol cyclosulfate, reference compound] | 0.048 | > 500 µM | 62 | 0.026 |  |  |  |
| CN1[C@@H]2[C@H](O)[C@@H](O)[C@H](O)[C@@H](CO)[C@@H]2OS1(=O)=O [compound 5] | 485 ± 146 | > 500 µM |  | > 500 | 393 ± 93.7 | inactive |  |
| CN1[C@H]2[C@H](CO)[C@@H](O)[C@H](O)[C@@H](O)[C@H]2OS1(=O)=O [compound 7] | > 1000 | 93 µM and 93.4 µM |  | 132 ± 11.8 | 652 ± 87.3 |  | > 50 |
| O=S1(=O)N[C@@H]2[C@H](O)[C@@H](O)[C@H](O)[C@@H](CO)[C@@H]2N1 [compound 8] | > 500 | > 500 µM |  | > 500 | > 500 |  | > 50 |
